In US20230111310A1, “CARBOXYLIC ACID DERIVATIVE-SUBSTITUTED IMINO ARYL COMPOUND, PREPARATION METHOD THEREFOR, HERBICIDAL COMPOSITION AND USE THEREOF” (Qingdao Kingagroot Chemical Compound Co., Ltd., priority 2020, published 2023):

Assays:
Assay in all cases: Weeding effect in post-emergence stage
Assay type in all cases: in vivo
[1] = tested on: Abutilon theophrasti; conditions: for Weeding effect in post-emergence stage, Abutilon theophrasti: level of fresh weight growth control rate
Method in brief: (§1)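 Read-out is growth control rate, counted 3 weeks post-spray and averaged over three repeats. Greenhouse plants at the 2-3 leaf stage received spray-tower application at 500, 250, 125, 60, 30, 15 or 7.5 g/ha, with methyl oleate EC (1.5 liter/ha) and Tween 80 added.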

[2] = tested on: Digitaria sanguinalis; conditions: for Weeding effect in post-emergence stage, Digitaria sanguinalis: level of fresh weight growth control rate
Method in brief: as §1

[3] = tested on: Setaria viridis; conditions: for Weeding effect in post-emergence stage, Setaria viridis: level of fresh weight growth control rate
Method in brief: as §1

[4] = tested on: Alopecurus japonicus; conditions: for Weeding effect in post-emergence stage, Alopecurus japonicus: level of fresh weight growth control rate
Method in brief: as §1

[5] = tested on: Eleusine indica; conditions: for Weeding effect in post-emergence stage, Eleusine indica: level of fresh weight growth control rate
Method in brief: as §1

[6] = tested on: Echinochloa crusgalli; conditions: for Weeding effect in post-emergence stage, Echinochloa crusgalli: level of fresh weight growth control rate
Method in brief: as §1

[7] = Dose 15 g/ha, fresh weight control rate level

| SMILES | Weeding effect in post-emergence stage, Abutilon theophrasti ([1]; Dose 15 g/ha) | Weeding effect in post-emergence stage, Digitaria sanguinalis ([2]; Dose 15 g/ha) | Weeding effect in post-emergence stage, Setaria viridis ([3]; Dose 15 g/ha) | Weeding effect in post-emergence stage, Alopecurus japonicus ([4]; Dose 15 g/ha) | Weeding effect in post-emergence stage, Eleusine indica ([5]; Dose 15 g/ha) | Weeding effect in post-emergence stage, Echinochloa crusgalli ([6]; Dose 15 g/ha) | other results |
| --- | --- | --- | --- | --- | --- | --- | --- |
| CC(O/N=C/c1cc(-n2c(=O)cc(C(F)(F)F)n(C)c2=O)c(F)cc1Cl)C(=O)OCCF (racemic) [Compound 216] | 5 (Level 5: growth control rate is above 85%) | 5 (Level 5: growth control rate is above 85%) | 5 (Level 5: growth control rate is above 85%) | 4 (Level 4: growth control rate is greater than or equal to 60% and less than 85%) | 5 (Level 5: growth control rate is above 85%) | 5 (Level 5: growth control rate is above 85%) |  |
| C[C@@H](O/N=C/c1cc(-n2c(=O)cc(C(F)(F)F)n(C)c2=O)c(F)cc1Cl)C(=O)OCc1cccs1 [268(R)] |  |  |  |  |  |  | Weeding effect in post-emergence stage, Abutilon theophrasti ([1]; Dose 30 g/ha): 5 (Level 5: growth control rate is above 85%); Weeding effect in post-emergence stage, Digitaria sanguinalis ([2]; Dose 30 g/ha): 5 (Level 5: growth control rate is above 85%); Weeding effect in post-emergence stage, Setaria viridis ([3]; Dose 30 g/ha): 5 (Level 5: growth control rate is above 85%); Weeding effect in post-emergence stage, Alopecurus japonicus ([4]; Dose 30 g/ha): 5 (Level 5: growth control rate is above 85%); Weeding effect in post-emergence stage, Eleusine indica ([5]; Dose 30 g/ha): 5 (Level 5: growth control rate is above 85%); Weeding effect in post-emergence stage, Echinochloa crusgalli ([6]; Dose 30 g/ha): 5 (Level 5: growth control rate is above 85%) |
| COC(=O)[C@@H](C)O/N=C/c1cc(-n2c(=O)n(C)c(=S)n(C)c2=S)c(F)cc1Cl [124(R)] | 5 (Level 5: growth control rate is above 85%) | 5 (Level 5: growth control rate is above 85%) | 5 (Level 5: growth control rate is above 85%) | 5 (Level 5: growth control rate is above 85%) | 5 (Level 5: growth control rate is above 85%) | 5 (Level 5: growth control rate is above 85%) |  |
| COCCOC(=O)[C@@H](C)O/N=C/c1cc(-n2c(=O)n(C)c(=S)n(C)c2=O)c(F)cc1Cl [14(R)] | 5 (Level 5: growth control rate is above 85%) | 5 (Level 5: growth control rate is above 85%) | 5 (Level 5: growth control rate is above 85%) | 4 (Level 4: growth control rate is greater than or equal to 60% and less than 85%) | 5 (Level 5: growth control rate is above 85%) | 5 (Level 5: growth control rate is above 85%) |  |
| COC(=O)C(OC)OC(=O)C(C)O/N=C/c1cc(-n2c(=O)cc(C(F)(F)F)n(C)c2=O)c(F)cc1Cl (stereo not drawn) [Compound 245] |  |  |  |  |  |  | Weeding effect in post-emergence stage, Abutilon theophrasti ([1]; Dose 30 g/ha): 5 (Level 5: growth control rate is above 85%); Weeding effect in post-emergence stage, Digitaria sanguinalis ([2]; Dose 30 g/ha): 5 (Level 5: growth control rate is above 85%); Weeding effect in post-emergence stage, Setaria viridis ([3]; Dose 30 g/ha): 5 (Level 5: growth control rate is above 85%); Weeding effect in post-emergence stage, Alopecurus japonicus ([4]; Dose 30 g/ha): 5 (Level 5: growth control rate is above 85%); Weeding effect in post-emergence stage, Eleusine indica ([5]; Dose 30 g/ha): 5 (Level 5: growth control rate is above 85%); Weeding effect in post-emergence stage, Echinochloa crusgalli ([6]; Dose 30 g/ha): 5 (Level 5: growth control rate is above 85%) |
| CC(O/N=C/c1cc(-n2c(=O)cc(C(F)(F)F)n(C)c2=O)c(F)cc1Cl)C(=O)OCCC#N (racemic) [Compound 227] | 5 (Level 5: growth control rate is above 85%) | 5 (Level 5: growth control rate is above 85%) | 5 (Level 5: growth control rate is above 85%) | 5 (Level 5: growth control rate is above 85%) | 5 (Level 5: growth control rate is above 85%) | 5 (Level 5: growth control rate is above 85%) |  |
| COC(=O)C(C)ON=Cc1nc(-n2c(=O)cc(C(F)(F)F)n(C)c2=O)c(F)cc1Cl [504(R)] |  |  |  |  |  |  | Weeding effect in post-emergence stage, Abutilon theophrasti (level) [1, 7]: 5 (Level 5: growth control rate is above 85%); Weeding effect in post-emergence stage, Digitaria sanguinalis (level) [2, 7]: 5 (Level 5: growth control rate is above 85%); Weeding effect in post-emergence stage, Setaria viridis (level) [3, 7]: 5 (Level 5: growth control rate is above 85%); Weeding effect in post-emergence stage, Alopecurus japonicus (level) [4, 7]: 5 (Level 5: growth control rate is above 85%); Weeding effect in post-emergence stage, Eleusine indica (level) [5, 7]: 5 (Level 5: growth control rate is above 85%); Weeding effect in post-emergence stage, Echinochloa crusgalli (level) [6, 7]: 5 (Level 5: growth control rate is above 85%) |
